In patent US5098932A, “Cyclic ether derivatives” (Imperial Chemical Industries PLC, ICI Pharma, priority 1988, dated 1992):

Legend:
5-LO (LTB4) = experiment: In vitro heparinised human blood assay, A23187 challenge, LTB4 radioimmunoassay, test b); format: cell-based
Description: (§1) b) An in vitro assay system involving incubating a test compound with heparinised human blood, prior to challenge with the calcium ionophore A23187 and then indirectly measuring the inhibitory effects on 5-LO by assaying the amount of LTB4 using the specific radioimmunoassay described by Carey and Forder (F. Carey and R. A. Forder, Brit. J. Pharmacol. 1985, 84, 34P) which involves the use of a protein-LTB4 conjugate produced using the procedure of Young et alia (Prostaglandins, 1983, 26(4),605-613). The effects of a test compound on the enzyme cyclooxygenase (which is involved in the alternative metabolic pathway for arachidonic acid and gives rise to prostaglandins, thromboxanes and related metabolites) may be measured at the same time using the specific radioimmunoassay for thromboxane B2 (T×B2) described by Carey and Forder (see above). This test provides an indication of the effects of a test compound against 5-LO and also cyclooxygenase in the presence of blood cells and proteins. It permits the selectivity of the inhibitory effect on 5-LO or cyclooxygenase to be assessed.

cyclooxygenase (TxB2) = experiment: In vitro heparinised human blood assay, A23187 challenge, TxB2 radioimmunoassay, test b); format: cell-based
Description: as §1

IC50 (5-LO (LTB4)): 100 nM
IC50 (cyclooxygenase (TxB2)): > 40000 nM
Compound: CCC1(c2cccc(OCc3ccc4ccccc4c3)c2)COC(C)(C)O1 (centres unmarked) [4-ethyl-2,2-dimethyl-4-[3-(naphth-2-ylmethoxy)phenyl]-1,3-dioxolane]
